From patent publication US12492173B2, “Herbicidal substituted N-tetrazolyl aryl carboxamides” (Bayer Aktiengesellschaft, priority 2019, dated 2025)

Columns and labels:
Type in all cases: in vivo
Amaranthus retroflexus = test: Pre-emergence herbicidal action, AMARE; conditions: dosage 320 g/ha, scored visually after 3 weeks vs untreated controls (100% = plants have died)
Summary of the method: (§1)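 Seeds were covered with sandy loam soil, then received a pre-emergence surface spray of the WP- or EC-formulated compound. After 3 weeks under good greenhouse growth conditions, damage was scored visually in percent.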

Viola tricolor = test: Pre-emergence herbicidal action, VIOTR; parameters: key to Herbicidal action against VIOTR: % activity: 100 = plants have died, 0 = like control plants; conditions: for herbicidal activity VIOTR: dosage 320 g/ha, scored visually after 3 weeks vs untreated controls (100% = plants have died)
Summary of the method: as §1

Echinochloa crus-galli = test: Pre-emergence herbicidal action, ECHCG; parameters: key to Herbicidal action against ECHCG: % activity: 100 = plants have died, 0 = like control plants; conditions: for herbicidal activity ECHCG: dosage 320 g/ha, scored visually after 3 weeks vs untreated controls (100% = plants have died)
Summary of the method: as §1

Avena fatua = test: Post-emergence herbicidal action, AVEFA; parameters: key: % herbicidal action vs untreated; 100 = plants died, 0 = like control
Summary of the method: (§2)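 Treatment: post-emergence spray, one-leaf stage. Medium: sandy loam, greenhouse. Carrier: 600–800 l/ha water, 0.2% wetting agent. Read-out: visual % activity at ~3 weeks, untreated plants as reference.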

Polygonum convolvulus = test: Post-emergence herbicidal action, POLCO
Summary of the method: as §2

Setaria viridis = test: Post-emergence herbicidal action, SETVI; parameters: key: % herbicidal action vs untreated; 100 = plants died, 0 = like control
Summary of the method: as §2

[1] = comparative experiment, 20 g of a.i./ha
[2] = comparative experiment, post-emergence, 5 g of a.i./ha

SMILES | herbicidal activity AMARE (Amaranthus retroflexus) | herbicidal activity VIOTR (Viola tricolor) | herbicidal activity ECHCG (Echinochloa crus-galli) | herbicidal action AVEFA (Avena fatua; post-emergence, dosage 80 g/ha) | herbicidal action POLCO (Polygonum convolvulus; post-emergence, dosage 80 g/ha) | herbicidal action SETVI (Setaria viridis; post-emergence, dosage 80 g/ha) | Herbicidal action against VIOTR (Viola tricolor; [1]) | Herbicidal action against ECHCG (Echinochloa crus-galli; [1]) | herbicidal action AVEFA (Avena fatua; Dosage 80 g/ha) | herbicidal action POLCO (Polygonum convolvulus; Dosage 80 g/ha) | herbicidal action SETVI (Setaria viridis; Dosage 80 g/ha) | Herbicidal action against AVEFA (Avena fatua; [2]) | Herbicidal action against POLCO (Polygonum convolvulus; [2])
CSCc1c(C(F)(F)F)ccc(C(=O)Nc2nnnn2C)c1Br [Example 1-380] | 100% | 100% | 100% | 100% | 90% | 90% | – | – | – | – | – | – | –
CCCn1nnnc1NC(=O)c1ccc(C(F)(F)F)c(C[S+](C)[O-])c1Cl (stereo not shown) [Example 3-297] | 100% | 100% | 100% | 100% | 80% | 80% | – | – | – | – | – | – | –
Cn1nnnc1NC(=O)c1ccc(C(F)(F)F)c(C[S+](C)[O-])c1Br (stereo not shown) [Example 1-381] | 100% | 100% | 100% | 100% | 80% | 100% | 90 | 90 | – | – | – | – | –
C=CCSCc1c(C(F)(F)F)ccc(C(=O)Nc2nnnn2C)c1Cl [Example 1-308] | 100% | 100% | 100% | 100% | 90% | 100% | – | – | – | – | – | – | –
CCn1nnnc1NC(=O)c1ccc(C(F)(F)F)c(CSC)c1SC [Example 2-161] | 100% | 100% | 100% | 90% | 100% | 100% | – | – | – | – | – | – | –
Cc1c(C(=O)Nc2nnnn2C)ccc(C(F)(F)F)c1CS(C)(=O)=O [Example 1-85] | 100% | 100% | 100% | – | – | – | – | – | 80 | 80 | 100 | – | –
CCn1nnnc1NC(=O)c1ccc(C(F)(F)F)c(C[S+](C)[O-])c1Br (stereo not shown) [Example 2-381] | 100% | 100% | 100% | 100% | 90% | 100% | – | – | – | – | – | – | –
CCSCc1c(C(F)(F)F)ccc(C(=O)Nc2nnnn2CC)c1Br [Example 2-383] | 100% | 100% | 100% | 100% | 90% | 100% | – | – | – | – | – | – | –
CCCn1nnnc1NC(=O)c1ccc(C(F)(F)F)c(CSC)c1Br [Example 3-380] | 100% | 100% | 100% | – | – | – | – | – | 100 | 90 | 90 | – | –
CCSCc1c(C(F)F)ccc(C(=O)Nc2nnnn2C)c1SCC [Example 1-191] | 100% | 100% | 100% | – | – | – | – | – | 80 | 90 | 100 | – | –
CCn1nnnc1NC(=O)c1ccc(C(F)(F)F)c(CSC)c1Br [Example 2-380] | 100% | 100% | 100% | 100% | 90% | 100% | – | – | – | – | – | – | –
CCCn1nnnc1NC(=O)c1ccc(C(F)(F)F)c(CSCC)c1Br [Example 3-383] | 100% | 100% | 100% | – | – | – | – | – | 90 | 90 | 90 | – | –
Cn1nnnc1NC(=O)c1ccc(C(F)(F)F)c(CS(C)(=O)=O)c1Cl [Example 1-298] | 100% | 100% | 100% | 100% | 90% | 100% | – | – | – | – | – | 60 | 60
CCCn1nnnc1NC(=O)c1ccc(C(F)F)c(CSC)c1C [Example 3-107] | 100% | 100% | 100% | – | – | – | – | – | 80 | 90 | 90 | – | –
Cn1nnnc1NC(=O)c1ccc(C(F)(F)F)c(CS(C)(=O)=O)c1Br [Example 1-382, 2-bromo-3-[(methylsulfonyl)methyl]-N-(1-methyl-1H-tetrazol-5-yl)-4-(trifluoromethyl)benzamide] | 100% | 100% | 100% | – | – | – | – | – | 100 | 90 | 90 | – | –
CSCc1c(C(F)F)ccc(C(=O)Nc2nnnn2C)c1C [Example 1-107, 4-(difluoromethyl)-2-methyl-3-[(methylsulfanyl)methyl]-N-(1-methyl-1H-tetrazol-5-yl)benzamide] | 100% | 90% | 100% | – | – | – | – | – | 80 | 90 | 90 | – | –
Cn1nnnc1NC(=O)c1ccc(C(F)(F)F)c(C[S+](C)[O-])c1Cl (racemic) [Example 1-297] | 100% | 100% | 100% | 100% | 80% | 80% | – | – | – | – | – | – | –
CCn1nnnc1NC(=O)c1ccc(C(F)(F)F)c(CS(C)(=O)=O)c1SC [Example 2-163] | 100% | 100% | 100% | – | – | – | – | – | 100 | 90 | 90 | – | –
CCS(=O)(=O)Cc1c(C(F)(F)F)ccc(C(=O)Nc2nnnn2C)c1Cl [Example 1-301] | 100% | 100% | 100% | – | – | – | – | – | 100 | 100 | 90 | – | –
